How the values were obtained:
Assay in all cases: Kinase profiling in a biochemical assay panel (mobility shift assays and ELISA), %-inhibition at 1 μM; selectivity entropy
[1] = target: T1, panel of more than 300 wild-type and mutant kinases (313 kinase panel) (Homo sapiens, UniProt O14965)
T1 sequence (O14965 1-403): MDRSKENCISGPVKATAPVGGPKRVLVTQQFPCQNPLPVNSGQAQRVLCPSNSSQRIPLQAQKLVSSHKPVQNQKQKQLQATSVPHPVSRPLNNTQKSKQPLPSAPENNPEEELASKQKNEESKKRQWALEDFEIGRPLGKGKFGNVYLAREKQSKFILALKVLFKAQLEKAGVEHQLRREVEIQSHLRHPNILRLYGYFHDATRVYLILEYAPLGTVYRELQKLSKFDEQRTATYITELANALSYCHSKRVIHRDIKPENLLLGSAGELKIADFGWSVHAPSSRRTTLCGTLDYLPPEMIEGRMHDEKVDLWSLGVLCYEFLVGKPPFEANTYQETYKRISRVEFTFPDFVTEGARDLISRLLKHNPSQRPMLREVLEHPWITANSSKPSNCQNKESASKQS

[2] = target: T2, panel of more than 300 wild-type and mutant kinases (313 kinase panel) (Homo sapiens, UniProt P29323)
T2 sequence (P29323 19-1055): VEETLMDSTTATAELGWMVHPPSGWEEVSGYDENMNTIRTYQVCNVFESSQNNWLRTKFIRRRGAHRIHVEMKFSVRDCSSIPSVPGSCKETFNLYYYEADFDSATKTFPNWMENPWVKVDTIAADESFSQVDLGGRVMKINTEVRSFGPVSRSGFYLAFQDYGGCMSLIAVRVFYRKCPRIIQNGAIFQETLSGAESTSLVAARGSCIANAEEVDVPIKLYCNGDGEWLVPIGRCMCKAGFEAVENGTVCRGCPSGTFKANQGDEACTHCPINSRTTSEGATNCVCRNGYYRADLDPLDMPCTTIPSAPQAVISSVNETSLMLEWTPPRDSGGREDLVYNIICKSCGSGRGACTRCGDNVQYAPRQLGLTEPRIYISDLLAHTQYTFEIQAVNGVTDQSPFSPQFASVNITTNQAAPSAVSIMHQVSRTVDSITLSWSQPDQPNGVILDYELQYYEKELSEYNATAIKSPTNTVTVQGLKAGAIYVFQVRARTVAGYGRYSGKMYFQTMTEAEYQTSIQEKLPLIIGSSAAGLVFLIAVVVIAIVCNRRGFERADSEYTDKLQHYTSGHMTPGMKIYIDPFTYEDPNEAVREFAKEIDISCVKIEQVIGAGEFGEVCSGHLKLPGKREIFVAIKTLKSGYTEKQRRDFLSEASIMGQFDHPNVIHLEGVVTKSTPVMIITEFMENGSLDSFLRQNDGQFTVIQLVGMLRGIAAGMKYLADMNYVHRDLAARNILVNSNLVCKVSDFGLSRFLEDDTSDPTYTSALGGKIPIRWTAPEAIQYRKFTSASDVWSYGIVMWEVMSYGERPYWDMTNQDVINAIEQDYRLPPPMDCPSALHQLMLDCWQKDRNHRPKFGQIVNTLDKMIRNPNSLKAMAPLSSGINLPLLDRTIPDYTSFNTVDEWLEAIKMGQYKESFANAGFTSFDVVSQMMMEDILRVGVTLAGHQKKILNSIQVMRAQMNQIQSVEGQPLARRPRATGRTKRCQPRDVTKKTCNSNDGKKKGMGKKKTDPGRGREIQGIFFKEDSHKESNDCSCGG

[3] = target: panel of more than 300 wild-type and mutant kinases (313 kinase panel) (Homo sapiens, UniProt Q07912)
Sequence of panel of more than 300 wild-type and mutant kinases (313 kinase panel) (Homo sapiens, UniProt Q07912) (Q07912 whole entry, change not shown): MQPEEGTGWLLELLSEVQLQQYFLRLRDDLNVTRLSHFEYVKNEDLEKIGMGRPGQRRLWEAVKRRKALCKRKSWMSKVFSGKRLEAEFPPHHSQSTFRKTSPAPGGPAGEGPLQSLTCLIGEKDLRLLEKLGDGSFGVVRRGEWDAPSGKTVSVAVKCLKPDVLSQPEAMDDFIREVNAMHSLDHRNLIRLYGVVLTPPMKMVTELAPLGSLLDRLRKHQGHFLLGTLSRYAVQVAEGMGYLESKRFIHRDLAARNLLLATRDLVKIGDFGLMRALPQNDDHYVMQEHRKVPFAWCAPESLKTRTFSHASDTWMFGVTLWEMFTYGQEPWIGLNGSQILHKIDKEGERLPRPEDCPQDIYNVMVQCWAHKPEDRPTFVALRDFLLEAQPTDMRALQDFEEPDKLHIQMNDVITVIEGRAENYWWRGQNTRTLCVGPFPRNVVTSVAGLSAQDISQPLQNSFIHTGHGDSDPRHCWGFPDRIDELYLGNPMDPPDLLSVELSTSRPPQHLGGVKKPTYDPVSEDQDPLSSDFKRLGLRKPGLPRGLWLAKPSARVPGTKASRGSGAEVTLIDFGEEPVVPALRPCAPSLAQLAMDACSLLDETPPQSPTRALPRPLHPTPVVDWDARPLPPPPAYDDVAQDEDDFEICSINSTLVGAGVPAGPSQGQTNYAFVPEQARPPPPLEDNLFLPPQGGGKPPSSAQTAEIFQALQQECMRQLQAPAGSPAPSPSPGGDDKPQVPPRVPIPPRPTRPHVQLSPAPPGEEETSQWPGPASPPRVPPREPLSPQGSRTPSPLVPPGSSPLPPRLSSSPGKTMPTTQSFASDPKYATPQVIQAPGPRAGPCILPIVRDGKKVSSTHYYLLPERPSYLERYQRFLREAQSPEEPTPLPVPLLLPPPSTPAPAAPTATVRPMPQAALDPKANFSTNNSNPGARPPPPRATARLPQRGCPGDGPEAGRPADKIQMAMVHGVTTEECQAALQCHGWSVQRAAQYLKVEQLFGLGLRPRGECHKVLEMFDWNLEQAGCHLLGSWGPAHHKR

[4] = target: panel of more than 300 wild-type and mutant kinases (313 kinase panel) (Homo sapiens, UniProt Q9HC98)
[5] = target: T3, panel of more than 300 wild-type and mutant kinases (313 kinase panel) (Homo sapiens, UniProt Q9NZJ5)
T3 sequence (Q9NZJ5 30-1116): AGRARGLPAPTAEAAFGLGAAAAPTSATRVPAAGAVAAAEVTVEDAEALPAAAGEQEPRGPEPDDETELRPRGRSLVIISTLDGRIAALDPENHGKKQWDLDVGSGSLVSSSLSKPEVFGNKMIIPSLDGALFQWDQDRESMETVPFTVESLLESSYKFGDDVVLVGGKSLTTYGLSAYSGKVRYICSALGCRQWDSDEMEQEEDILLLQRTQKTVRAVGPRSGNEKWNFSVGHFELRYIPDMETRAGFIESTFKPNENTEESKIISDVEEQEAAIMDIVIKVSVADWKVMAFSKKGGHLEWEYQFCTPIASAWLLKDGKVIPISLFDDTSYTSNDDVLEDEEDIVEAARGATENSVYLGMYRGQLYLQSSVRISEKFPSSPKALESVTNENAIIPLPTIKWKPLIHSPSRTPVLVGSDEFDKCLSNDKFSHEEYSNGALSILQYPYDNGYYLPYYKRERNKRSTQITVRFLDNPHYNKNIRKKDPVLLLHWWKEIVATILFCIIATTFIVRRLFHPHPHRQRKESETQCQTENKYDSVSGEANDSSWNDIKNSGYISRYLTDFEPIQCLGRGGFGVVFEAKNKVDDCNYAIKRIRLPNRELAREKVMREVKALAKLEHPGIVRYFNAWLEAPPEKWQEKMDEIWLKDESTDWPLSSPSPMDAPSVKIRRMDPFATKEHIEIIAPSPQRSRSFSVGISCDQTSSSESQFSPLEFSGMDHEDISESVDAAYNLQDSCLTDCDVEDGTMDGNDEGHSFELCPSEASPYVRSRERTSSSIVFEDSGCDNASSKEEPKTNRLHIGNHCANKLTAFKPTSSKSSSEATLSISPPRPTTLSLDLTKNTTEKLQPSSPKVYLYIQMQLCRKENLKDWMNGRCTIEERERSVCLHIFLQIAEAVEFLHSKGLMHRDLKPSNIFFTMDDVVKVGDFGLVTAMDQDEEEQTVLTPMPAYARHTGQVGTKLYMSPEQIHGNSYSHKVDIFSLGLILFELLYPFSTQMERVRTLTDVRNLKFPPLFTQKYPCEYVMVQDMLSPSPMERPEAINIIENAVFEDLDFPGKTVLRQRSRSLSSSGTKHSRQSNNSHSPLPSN

[6] = kinase AurA/TPX2, 1 μM compound

Row | SMILES | %-inhibition, AurA/TPX2 [1, 6] | %-inhibition, AurA ([1]; kinase AurA, 1 μM compound) | %-inhibition of EPHB2 ([2]; kinase EPHB2, compound at 1 μM) | %-inhibition, ACK ([3]; kinase ACK, 1 μM compound) | %-inhibition of NEK6 ([4]; kinase NEK6, 1 μM) | %-inhibition of PEK ([5]; kinase PEK, 1 μM) | %-inhibition, ACK ([3]; 1 µM) | %-inhibition, AurA ([1]; 1 µM) | %-inhibition, AurA/TPX2 ([1]; 1 µM) | %-inhibition of EPHB2 ([2]; 1 µM) | %-inhibition of NEK6 ([4]; 1 µM) | %-inhibition of PEK ([5]; 1 µM)
1 | CO[C@H]1C[C@@H]2CC[C@@H](C)[C@@](O)(O2)C(=O)C(=O)N2CCCC[C@H]2C(=O)O[C@H]([C@H](C)C[C@@H]2CC[C@@H](OC(=O)C(C)(CO)CO)[C@H](OC)C2)CC(=O)[C@H](C)/C=C(\C)[C@@H](O)[C@@H](OC)C(=O)[C@H](C)C[C@H](C)/C=C/C=C/C=C/1C [temsirolimus] | -3.42% | -12% | -5.66% | -8% | -3.31% | 8% |  |  |  |  |  | 
2 | CNC(=O)c1cc(Oc2ccc(NC(=O)Nc3ccc(Cl)c(C(F)(F)F)c3)c(F)c2)ccn1 [regorafenib] | -4% | 7% | 84% | -3.35% | -6.48% | 12% |  |  |  |  |  | 
3 | CO[C@H]1C[C@@H]2CC[C@@H](C)[C@@](O)(O2)C(=O)C(=O)N2CCCC[C@H]2C(=O)O[C@H]([C@H](C)C[C@@H]2CC[C@@H](OCCO)[C@H](OC)C2)CC(=O)[C@H](C)/C=C(\C)[C@@H](O)[C@@H](OC)C(=O)[C@H](C)C[C@H](C)/C=C/C=C/C=C/1C [everolimus] | -4.51% | 3.74% | -7% | -4.62% | -6.38% | 5.28% |  |  |  |  |  | 
4 | COc1cc2nccc(Oc3ccc(NC(=O)C4(C(=O)Nc5ccc(F)cc5)CC4)cc3)c2cc1OC [cabozantinib] | 29% | 54% | 96% | 30% | -3.21% | 79% |  |  |  |  |  | 
5 | Cc1nc(Nc2ncc(C(=O)Nc3c(C)cccc3Cl)s2)cc(N2CCN(CCO)CC2)n1 [dasatinib] | 22% |  |  |  |  |  |  |  |  |  |  | 
6 | COc1cc2c(Nc3ccc(Br)cc3F)ncnc2cc1OCC1CCN(C)CC1 [vandetanib] |  |  | 96% | 24% | -4.3% | 4.69% |  |  |  |  |  | 
7 | CC(C)(C)c1nc(-c2cccc(NS(=O)(=O)c3c(F)cccc3F)c2F)c(-c2ccnc(N)n2)s1 [dabrafenib] |  |  | -3.38% | 24% | -3% |  |  |  |  |  |  | 
8 | Cc1ccc(Nc2nccc(N(C)c3ccc4c(C)n(C)nc4c3)n2)cc1S(N)(=O)=O [pazopanib] |  |  | 16% | 13% | -3% | 2.38% |  |  |  |  |  | 
9 | N#CC[C@H](C1CCCC1)n1cc(-c2ncnc3[nH]ccc23)cn1 [ruxolitinib] | 63% |  | 5.54% | 93% | -6% | -0.459% |  |  |  |  |  | 
10 | C[C@@H](Oc1cc(-c2cnn(C3CCNCC3)c2)cnc1N)c1c(Cl)ccc(F)c1Cl [crizotinib] |  |  | 57% |  | -2.72% | 1.1% |  |  |  |  |  | 
11 | CN(C)C/C=C/C(=O)Nc1cc2c(Nc3ccc(F)c(Cl)c3)ncnc2cc1O[C@H]1CCOC1 [afatinib] |  |  |  |  |  | 12% |  |  |  |  |  | 
12 | CCCS(=O)(=O)Nc1ccc(F)c(C(=O)c2c[nH]c3ncc(-c4ccc(Cl)cc4)cc23)c1F [vemurafenib] | -2.59% | 23% | -2.11% | 40% | -1.43% | 11% |  |  |  |  |  | 
13 | O=S(=O)(c1cccc2cnccc12)N1CCCNCC1 [fasudil] | -1.11% | -2% | -7.43% | 0.581% | -2.46% | -7.4% |  |  |  |  |  | 
14 | CS(=O)(=O)CCNCc1ccc(-c2ccc3ncnc(Nc4ccc(OCc5cccc(F)c5)c(Cl)c4)c3c2)o1 [lapatinib] | -10% | 5.59% | 4.6% |  | -4.3% | -0.193% | 2.36% |  |  |  |  | 
15 | C#Cc1cccc(Nc2ncnc3cc(OCCOC)c(OCCOC)cc23)c1 [erlotinib] |  |  |  |  |  |  | 37% | 29% | 1.46% | 23% | 2% | 1.35%
16 | Cc1cn(-c2cc(NC(=O)c3ccc(C)c(Nc4nccc(-c5cccnc5)n4)c3)cc(C(F)(F)F)c2)cn1 [nilotinib] | -9% | -5.43% | 85% | 13% | 1% | 0.387% |  |  |  |  |  | 
17 | COc1cc(Nc2c(C#N)cnc3cc(OCCCN4CCN(C)CC4)c(OC)cc23)c(Cl)cc1Cl [bosutinib] |  |  | 95% | 97% |  | 11% |  |  |  |  | -6% | 
18 | CCN(CC)CCNC(=O)c1c(C)[nH]c(/C=C2\C(=O)Nc3ccc(F)cc32)c1C [sunitinib] | 72% | 81% | 81% |  |  |  |  |  |  |  |  | 
19 | CC(=O)Nc1cccc(-n2c(=O)n(C3CC3)c(=O)c3c(Nc4ccc(I)cc4F)n(C)c(=O)c(C)c32)c1 [trametinib] | -5.37% | -2% | -8% | -5.39% | -0.324% | 1.13% |  |  |  |  |  | 

From PMC3961306, “Comparison of the Cancer Gene Targeting and Biochemical Selectivities of All Targeted Kinase Inhibitors Approved for Clinical Use” (PLoS ONE, 2014)
